Results taken from ChEMBL document CHEMBL1134789, “Design, synthesis, and modeling of novel cyclic thrombin receptor-derived peptide analogues of the Ser42-Phe-Leu-Leu-Arg46 motif sequence with fixed conformations of pharmacophoric groups: importance of a Phe/Arg/NH2 cluster for receptor activation and implications in the design of nonpeptide …” (2001).

Species on record: Rattus norvegicus
Assay: Ratio concentration and the concentration of SFLLR-NH2 necessary for producing an equal relaxing effect on the isolated rat aortic rings
Type: functional, Aorta
With `N=C(N)NCCCCCC(=O)N1CCC(C(=O)NCc2ccc(F)cc2)CC1` the Relative potency was 37.3.
With `N=C(N)NCCCCCC(=O)NCCCCNC(=O)Cc1ccc(F)cc1` the Relative potency was 50.6.
`N=C(N)NCCCCCC(=O)NCCCCNC(=O)Cc1ccccc1` was tested, and the Relative potency was 68.
`CC(C)C[C@H](NC(=O)[C@H](CC(C)C)NC(=O)[C@H](Cc1ccccc1)NC(=O)[C@@H](N)CO)C(=O)N[C@@H](CCCN=C(N)N)C(N)=O` was tested, and the Relative potency was 1.
With `CC(C)C[C@@H]1NC(=O)[C@H](CC(C)C)NC(=O)[C@H](Cc2ccccc2)NC(=O)[C@@H](N)CNC(=O)[C@@H](N)CCCCNC(=O)[C@H](CCCN=C(N)N)NC1=O` the Relative potency was 3.3.
For `CC(C)C[C@@H]1NC(=O)[C@H](CC(C)C)NC(=O)[C@@H](Cc2ccccc2)NC(=O)[C@@H](N)CNC(=O)[C@@H](N)CCCCNC(=O)[C@H](CCCNC(=N)N)NC1=O`, the Relative potency was greater than 500.
For `NC(N)=NCCCCCC(=O)N1CCN(C(=O)C(N)Cc2ccccc2)CC1` (configuration not stated), the Relative potency was 32.8.
